Experiments:
in vivo = assay: in vivo; parameters: species or system C57BL/6 mice; conditions: ip; for concentration at 0.5 h / concentration at 1 h / concentration at 2 h / concentration at 4 h / concentration at 6 h / concentration at 24 h: female, C57BL/6, mouse, 30 mg/kg
Description: Test compound was dosed to sixteen female C57BL/6 mice by intraperitoneal injection in a volume of 0.6 ml. To reconstitute TUN-8,8 for intraperitoneal injections, compound (1 mg) was dissolved in 0.1 ml ethanol and subsequently diluted with 0.9 ml 1% Tween 80 in Dulbecco’s PBS. The mixture was warmed to 37 °C, vortexed and sonicated followed by sterile filtration through a 0.2 μm filter. Blood samples were taken from the tail vein of the mice at pre-determined time intervals post-dose, and serum collected after 4 h on ice. 30 μl serum samples were prepared with 30 μl internal standard and 20 μl of water or spiked standard along with 240 μl of ACN/MeOH mix (3:1) to precipitate proteins. Samples were centrifuged 13 krpm for 5 minutes and 2 μl injected into LC-MS/MS system. Calibration standard was prepared 1 mg of TUN-8,8 to 1 ml DMSO and successively diluted by a factor of 3. TUN-9,9 IS solution was prepared to 200 μg/ml in DMSO.
LC-MS/MS was performed on an Agilent 1290 Infinity HPLC coupled to an Agilent 6460C triple quadrupole mass selective detector with electrospray ionization in positive mode. TUN-8,8 and TUN-9,9 (as an internal standard) were detected using their M+H precursors ions with 514.1 and 528.2 Da/z product ions produced in a collision cell using collision energy 12 V. Capillary voltage was 3000 V and ESI used jet stream technology with sheath voltage 2000 V. The column was an Agilent C18 Poroshell 120 2.7 μm with dimensions 2.1 x 50 mm at 40 °C. Mobile phase was water (A) and acetonitrile (B) each with 0.1% (v/v) formic acid. […] Water for LC-MS/MS was purified by a Barnstead Diamond system to 18.2 MΩ-cm resistivity. Acetonitrile (ACN) and Methanol were HPLC grade from Fisher (Fairlawn NJ, USA) and formic acid was supplied from EMD Millipore Corp (Darmstadt, Germany). DMSO was ACS grade manufactured by Amresco LLC in Solon Ohio USA.

Mtb-infected mice = assay: Mouse infection, antitubercular activity
[1] = system: Mtb-infected J774A.1 macrophages; assay: Efficacy against Mtb growing in infected macrophages; conditions: J774A.1 macrophages treated 3 or 7 days
[2] = two weeks, 10 mg.kg^-1 ip, vs vehicle control

CCCCCCCC(=O)N[C@H]1[C@H](O[C@H]2O[C@H](CO)[C@@H](O)[C@H](O)[C@H]2NC(=O)CCCCCCC)O[C@H](C[C@@H](O)[C@H]2O[C@@H](n3ccc(=O)[nH]c3=O)[C@H](O)[C@@H]2O)[C@H](O)[C@@H]1O [TUN-8,8, Di-N-octanoyl-tunicamycin]
concentration at 0.5 h (in vivo; first series): 42.7 ± 28.3 µM | concentration at 1 h (in vivo; first series): 34.6 ± 7.4 µM | concentration at 2 h (in vivo; first series): 23.7 ± 9.25 µM | concentration at 4 h (in vivo; first series): 1.32 ± 1.09 µM | concentration at 6 h (in vivo; first series): 0.21 ± 0.12 µM | concentration at 24 h (in vivo; first series): 0.06 ± 0.08 µM | concentration at 0.5 h (in vivo; second series): 52.1 ± 34.5 µM | concentration at 1 h (in vivo; second series): 42.3 ± 9.04 µM | concentration at 2 h (in vivo; second series): 28.9 ± 11.3 µM | concentration at 4 h (in vivo; second series): 1.61 ± 1.33 µM | concentration at 6 h (in vivo; second series): 0.26 ± 0.15 µM | concentration at 24 h (in vivo; second series): 0.07 ± 0.1 µM | bioavailability (in vivo; mouse): good bioavailability | toxicity in infected mice (Mtb-infected mice; precluded testing beyond 2 weeks): clinical signs of toxicity | reduction in bacterial burdens in lungs (Mtb-infected mice; [2]): ~10 fold | reduction in bacterial burdens in spleens (Mtb-infected mice; [2]): ~5 fold | reduction of intracellular bacterial burdens ([1]; 1 × MIC): 1 logs | reduction of intracellular bacterial burdens ([1]; 10 × MIC): 2 logs
